Molecular target: T1, V331C LacY (lactose permease), MIANS- or DACM-labelled (Escherichia coli, UniProt P02920, E325Q/K319L/V331C)
T1 sequence (P02920 1-417 K319L/E325Q/V331C): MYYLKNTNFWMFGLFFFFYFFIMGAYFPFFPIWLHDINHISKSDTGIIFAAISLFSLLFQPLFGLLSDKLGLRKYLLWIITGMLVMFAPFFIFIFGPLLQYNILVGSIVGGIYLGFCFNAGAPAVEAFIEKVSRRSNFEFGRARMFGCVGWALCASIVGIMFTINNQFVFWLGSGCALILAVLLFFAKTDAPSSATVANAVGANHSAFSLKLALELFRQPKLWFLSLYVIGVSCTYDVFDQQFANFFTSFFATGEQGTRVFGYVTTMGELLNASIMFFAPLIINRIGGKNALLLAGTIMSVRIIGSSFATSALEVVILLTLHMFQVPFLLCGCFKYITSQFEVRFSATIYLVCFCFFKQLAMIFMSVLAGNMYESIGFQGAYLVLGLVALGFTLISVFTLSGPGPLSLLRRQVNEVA
Test: stopped-flow Trp to NPG FRET, kobs vs NPG
Assay type: binding

`O=[N+]([O-])c1ccc(O[C@H]2O[C@H](CO)[C@H](O)[C@H](O)[C@H]2O)cc1` [NPG, 4-nitrophenyl α-D-galactopyranoside] gave a Kd of 8.3 µM.

Source: article PMC2769999 (Biochemistry, 2009)
